This is an account of results in patent US20220202753A1, “METHOD OF DELIVERY OF INTRAVENOUS BACLOFEN” (Allaysis, LLC, priority 2020, published 2022).

Read-outs that look alike come from different tables or passages of the source.

Series [1] can be described thus: Study 2: dose escalation study of IV baclofen in healthy adult volunteers. The class given is in vivo, human. As to conditions: for subjects with asymptomatic nystagmus: 10-minute infusion, of 12 subjects; for bioavailability: human, plasma. Here is the method:
Study 2: Dose Escalation Study of IV Baclofen in Healthy Adult Volunteers
Following completion of the first-in-human study, a dose escalation study of IV and oral baclofen in 36 healthy volunteers was carried out using a randomized crossover oral/IV dose design and incorporating the investigational baclofen IV injection. The objectives of the study were: 1) characterize the pharmacokinetics of clinically relevant doses of oral and intravenous baclofen, 2) determine the safety profile of oral and intravenous baclofen, and 3) estimate bioequivalence parameters (AUC and Cmax) for 10- and 60-minute (only 15 mg dose) infusions of baclofen.
The general design of the study involved three cohorts of 12 subjects. Initially 3 subjects were randomized to receive the lowest dosing regimen. These subjects received a 7.5 mg IV infusion, followed by a washout period of 2 or more days, followed by a 10 mg oral dose. […] Twelve subjects completed Cohort 1 and received a […] IV and a 10 mg oral dose. The IV baclofen doses were based on a 75% bioavailability observed in the pilot study. In Cohort 2, 12 different subjects received 11.5 mg of IV and 15 mg of oral baclofen. In Cohort 3, another 12 subjects received 20 mg of oral and 15 mg of IV baclofen. Once all subjects had completed the 15 mg IV dose without complications, an additional dosing period was added to this Cohort in which 15 mg baclofen was infused over 60 in to 12 subjects. […] Blood samples were collected between 0-24 hours. A validated, liquid chromatography-mass spectroscopy assay was used to measure plasma baclofen concentrations.
Pharmacokinetic analysis was performed with Phoenix (Centara), a pharmacokinetic data analysis package. Pharmacokinetic parameters, including the observed maximum concentration (Cmax), the observed time to maximum concentration (Tmax), area under the concentration-time curve (AUC), clearance (CL), and volume of distribution (Vd), were estimated using non-compartmental analysis. The absolute oral bioavailability was calculated by dividing the dose-normalized AUC after oral dosing by the dose-normalized AUC after intravenous dosing. For an exploratory study of bioequivalence, the 90% confidence intervals of the geometric mean AUC(0-t), AUC(0-∞) and Cmax oral/AV ratios were determined using the 60-minute infusion as the test dose and the oral […] dose as the reference.

Series [2] in a line: Population pharmacokinetic modeling and simulation of IV baclofen infusion duration. Also on record: species or system human. Here is the method: Plasma concentrations from cohorts 2 and 3 from Study 2 described above were used to build a two-compartment model simultaneously describing the IV and PO routes of administration. Population PK models were developed using data from cohort 3 and cohorts 2 and 3 combined (see FIGS. 4 and 5). It is worth noting that the PK parameter estimates from both study populations were similar. Two PK models with fixed absorption rate constants (Ka) of 0.6 and 0.8 hr^−1 were used. These were determined from estimates from the population pharmacokinetic model and literature.
To assess the effect of infusion duration on Cmax and AUC, simulations were performed using the population PK parameter estimates determined from the baclofen dose ranging study. Using the models described above, simulations (n=10) of 30 subjects were completed using a 20 mg oral dose and IV doses of 15 and 16 mg infused over 120, 150, 180, and 210 minutes. The simulated data were then analyzed using non-compartmental analysis and bioequivalence of the maximum concentration and area under the curve was assessed. FIGS. 10 and 11 summarize how many times of the 10 simulations that the infusion rate met bioequivalence when 16 and 15 mg doses were used, respectively.
To assess the effect of infusion duration on Cmax, a population pharmacokinetic model was developed using the observed plasma concentrations of baclofen following oral dosing of 20 mg and IV dosing of 15 mg infused over 10 and 60 minutes. Plasma concentrations of baclofen were best described by a two-compartment model, displaying a very rapid tissue distribution phase indicative of highly perfused tissues such as the liver, lung and brain and a more prolonged elimination phase. […] Using the PK model, baclofen concentrations for a 20t mg oral dose, a 15 mg IV dose infused over 180 minutes, and 16 mg IV dose infusions administered over 180 and 240 min were simulated. This allowed a determination of the effect of infusion duration on baclofen Cmax.

Consider `NCC(CC(=O)O)c1ccc(Cl)cc1` (stereo not shown) [baclofen, 4-amino-3-[4-chlorophenyl] butanoic acid], for which the “subjects with asymptomatic nystagmus” value is on record as 2 subjects in series [1] (7.5 mg IV), 6 subjects in series [1] (11.5 mg IV) and 6 subjects in series [1] (15 mg IV). For the same compound, the “subjects with mild transient ataxia” value in series [1] (15 mg IV, 60-minute infusion) is “Two”; in series [1] (20 mg oral), “One”. The subjects with nystagmus result in series [1] (15 mg IV, 60-minute infusion) is “two”. In addition, the figures for the “bioequivalence of baclofen IV and oral baclofen by AUC0-t and AUC0-inf” value in series [1] (15 mg at 60-min infusion) and in series [1] (10-min infusions at all dose levels) were “not” and “demonstrated”, respectively. In series [1] (10- and 60-minute IV infusions), the “bioequivalence of IV infusions and oral baclofen by Cmax” value was “not bioequivalent”. Further, the “mean Cmax ratio of IV infusion to oral baclofen” value is given as 263% in series [1] (10-minute IV infusion, CI 247-281%) and 149% in series [1] (60-minute IV infusion, CI 135-165%). Moreover, the adverse effects result in series [1] (following both oral and IV doses) was “Mild, self-limited”. For the same compound, the bioavailability in series [1] (oral, all cohorts, read-out: estimated mean bioavailability) was 89%; in series [1] (cohort 2 (11.5 mg IV, 15 mg oral), read-out: bioavailability estimate) it was 85.8%; in series [1] (cohort 3 (15 mg IV, 20 mg oral), read-out: bioavailability estimate) it was 81.2%. Moreover, the “subjects not awake (took 20 seconds to awaken)” value in series [1] (three and a half hours after a 10 mg oral dose) is reported as “one”. For the same compound, in series [2] (population PK model estimate), the mean bioavailability is 84%. Also, the “population mean terminal t1/2 (β)” value in series [2] (two-compartment population PK model) was “approximately 4.2 hours”. In series [2] (two-compartment population PK model, 20 mg oral, 15 mg IV over 10 and 60 minutes), the “mean distribution t1/2” value is approximately 18 min.

The term bioavailability denotes the share of a dose that reaches the circulation, judged against a reference dose that is usually intravenous.
